# Like-named read-outs stand apart in the source and are kept apart here.
# Columns and labels:
# Actinomyces naeslundii = assay: Biofilm growth assay in BHI, crystal violet; format: cell-based; conditions: A naeslundii
# Procedure: (§1) Late exponential growth phase liquid cultures were prepared by transferring the respective bacterium from blood agar plates to BHI and overnight incubation at 37° C. in an anaerobic atmosphere for A. viscosus, V. parvula, F. nucleatum, P. gingivalis, P. intermedia, T. forsythia, A. naeslundii, and C. sputigena, and in a 5% CO2 environment for S. salivarius, S. sanguinis, S. mitis, A. actinomycetemcomitans, S. mutans, and S. gordonii. […] Additionally, for each bacterium tested, a background control, to correct for background staining, was added. This background control contained the bacterium tested and 0.03 weight % chlorhexidine, as an antiseptic. Plates were incubated as previously described. After 48 hrs the supernatant was removed from the wells of the plates. The wells were washed twice with 1×100 μL/PBS (phosphate buffered saline), fixed for 20 minutes with 96% vol. ethanol (96% vol. solution in water) and the biofilm retained at the bottom of the wells was stained with 1 weight % crystal violet (1 weight % solution in water). […] Quantification of the stained biofilm was performed by measuring the absorbance at 630 nm using a Multiskan Ascent microplate reader (Thermo Scientific).
# Actinomyces viscosus = assay: Biofilm growth assay in BHI, crystal violet; format: cell-based; conditions: A viscosus
# Procedure: as §1
# Capnocytophaga sputigena = assay: Biofilm growth assay in BHI, crystal violet; format: cell-based; conditions: C sputigena
# Procedure: as §1
# Fusobacterium nucleatum = assay: Biofilm growth assay in BHI, crystal violet; format: cell-based; conditions: F nucleatum
# Procedure: as §1
# Porphyromonas gingivalis = assay: Biofilm growth assay in BHI, crystal violet; format: cell-based; conditions: P gingivalis
# Procedure: as §1
# Prevotella intermedia = assay: Biofilm growth assay in BHI, crystal violet; format: cell-based; conditions: P intermedia
# Procedure: as §1
# Streptococcus gordonii = assay: Biofilm growth assay in BHI, crystal violet; format: cell-based; conditions: S gordonii
# Procedure: as §1
# Streptococcus mitis = assay: Biofilm growth assay in BHI, crystal violet; format: cell-based; conditions: S mitis
# Procedure: as §1
# Streptococcus mutans = assay: Biofilm growth assay in BHI, crystal violet; format: cell-based; conditions: S mutans
# Procedure: as §1
# Streptococcus salivarius = assay: Biofilm growth assay in BHI, crystal violet; format: cell-based; conditions: S salivarius
# Procedure: as §1
# Streptococcus sanguinis = assay: Biofilm growth assay in BHI, crystal violet; format: cell-based; conditions: S sanguinis
# Procedure: as §1
# Tannerella forsythia = assay: Biofilm growth assay in BHI, crystal violet; format: cell-based; conditions: T forsythia
# Procedure: as §1
# Veillonella parvula = assay: Biofilm growth assay in BHI, crystal violet; format: cell-based; conditions: V parvula
# Procedure: as §1
# [1] = system: beneficial oral bacteria and pathogenic oral bacteria; assay: Metabolic activity, prebiotic effect over the whole panel; format: cell-based; conditions: 48 hrs; threshold value of 2
# Procedure: The extent of metabolic activity of the tested bacteria in the presence of the above-mentioned acids after 24 hours and 48 hours was investigated through a high throughput phenotype microarray system (PM) for microbial cells (Biolog Inc.). Each PM can contain up to 95 different biochemical compounds (e.g. organic acids) that may act as substrates for bacteria as well as one negative control, not containing the substrates. Microarray plates were used in which the different wells of each plate were pre-loaded (by the manufacturer, Biolog Inc.) with different organic acids to be tested. Each bacterial species was tested using a separate microarray plate. Thus, a single bacterial species was tested with a variety of organic acids on each particular plate. The microarrays are based on redox technology, using cell respiration as a universal reporter. […] The observation of this color change indicates which of the substrates improve the metabolic activity and health of the cells.
# Each bacterial species was collected from blood agar plates (incubated for 48 hours anaerobically at 37° C.) and transferred to an IF-0 Base inoculation fluid (Biolog Inc.), which is a nutritionally poor medium. […] A 1:5 dilution of this suspension was prepared by mixing 3 mL of the 42% transmittance cell suspension with 15 mL of an inoculation fluid (which inoculation fluid was formed by mixing 11.6 mL sterile water, 62.5 mL IF-0 base inoculation fluid and 0.9 mL of the tetrazolium dye “Biolog Redox Dye mix D”), resulting in a final cell density which was equal to 85% transmittance using a BioRad SmartSpec 3000 Photometer. For each of the acids tested, the microarray plate (obtained from the supplier (Biolog Inc.) with acid already present in the relevant wells in powder form) was directly inoculated with 100 μL/well of this 85% transmittance cell suspension.
# All plates were incubated in an anaerobic atmosphere at 37° C. Color changes were measured spectrophotometrically at 492 nm (Thermo Scientific Multiskan Ascent) at 24 hrs and 48 hrs using the same plate at both time points.
# The controls were also carried out three times, as above.
# [2] = system: Aggregatibacter actinomycetemcomitans; conditions: A actinomycetemcomitans, BHI
# Procedure: (§2) Late exponential growth phase liquid cultures were prepared by transferring the respective bacterium from blood agar plates to BHI and overnight incubation at 37° C. in an anaerobic atmosphere for A. viscosus, V. parvula, F. nucleatum, P. gingivalis, P. intermedia, T forsythia, A. naeslundii, and C. sputigena, and in a 5% CO2 environment for S. salivarius, S. sanguinis, S. mitis, A. actinomycetemcomitans, S. mutans, S. sobrinus and S. gordonii. Overnight cultures were transferred to BHI and adjusted to a concentration of 1×10^7 CFU/ml (colony forming units per ml) by measuring the optical density at 600 nm (OD600) (BioRad SmartSpec 3000). For each strain, 200 μl of the bacterial suspension was added to a 96-well plate containing 20 μl of the respective carboxylic acids. Final concentrations of the carboxylic acids were set to 5, 10, 20 and 25 μmol/ml. […] Plates were incubated as previously described.
# (§3) For each combination of bacterium/carboxylic acid, and for each of their respective controls (i.e. the particular bacterium in the nutritionally rich medium with no carboxylic acid), the optical density was measured at 630 nm (OD630) at 0 h, 24 h and 48 h (Thermo Scientific Multiskan Ascent). Additionally, the OD630 for combinations of bacterium/carboxylic acid grown in a 5% CO2 environment were also measured every hour between 0 h and 9 h.
# (§4) The experiment was carried out on three different days (thus providing 3 biological replicas) and on each day the experiment was carried out in quadruple (thus providing 4 technical replicas) for each combination of bacterium with carboxylic acid and for each control. For each day and for each combination, the average (mean) of the values obtained (as detailed above) for the four technical replicas was calculated to provide a single value for each combination on each day.
# Streptococcus sobrinus = conditions: S sobrinus, BHI
# Procedure: as §2, §3, §4
structure (smiles),measurement,setting,value
N[C@@H](CC(=O)O)C(=O)O [L-aspartic acid],"biofilm growth, OD at 630 nm (crystal violet) at 48 hrs divided by OD of control (control = 1)",Actinomyces naeslundii; 5 μmol/ml,1.1735
same,"biofilm growth, OD at 630 nm (crystal violet) at 48 hrs divided by OD of control (control = 1)",Actinomyces naeslundii; 10 μmol/ml,1.2585
same,"biofilm growth, OD at 630 nm (crystal violet) at 48 hrs divided by OD of control (control = 1)",Actinomyces naeslundii; 20 μmol/ml,1.2309
same,"biofilm growth, OD at 630 nm (crystal violet) at 48 hrs divided by OD of control (control = 1)",Actinomyces naeslundii; 25 μmol/ml,1.1175
same,"biofilm growth, OD at 630 nm (crystal violet) at 48 hrs divided by OD of control (control = 1)",Actinomyces viscosus; 5 μmol/ml,0.5576
same,"biofilm growth, OD at 630 nm (crystal violet) at 48 hrs divided by OD of control (control = 1)",Actinomyces viscosus; 10 μmol/ml,0.5650
same,"biofilm growth, OD at 630 nm (crystal violet) at 48 hrs divided by OD of control (control = 1)",Actinomyces viscosus; 20 μmol/ml,0.5834
same,"biofilm growth, OD at 630 nm (crystal violet) at 48 hrs divided by OD of control (control = 1)",Actinomyces viscosus; 25 μmol/ml,0.5289
same,"biofilm growth, OD at 630 nm (crystal violet) at 48 hrs divided by OD of control (control = 1)",Capnocytophaga sputigena; 5 μmol/ml,0.9508
same,"biofilm growth, OD at 630 nm (crystal violet) at 48 hrs divided by OD of control (control = 1)",Capnocytophaga sputigena; 10 μmol/ml,0.9546
same,"biofilm growth, OD at 630 nm (crystal violet) at 48 hrs divided by OD of control (control = 1)",Capnocytophaga sputigena; 20 μmol/ml,0.9747
same,"biofilm growth, OD at 630 nm (crystal violet) at 48 hrs divided by OD of control (control = 1)",Capnocytophaga sputigena; 25 μmol/ml,0.9785
same,"biofilm growth, OD at 630 nm (crystal violet) at 48 hrs divided by OD of control (control = 1)",Fusobacterium nucleatum; 5 μmol/ml,1.2145
same,"biofilm growth, OD at 630 nm (crystal violet) at 48 hrs divided by OD of control (control = 1)",Fusobacterium nucleatum; 10 μmol/ml,0.9710
same,"biofilm growth, OD at 630 nm (crystal violet) at 48 hrs divided by OD of control (control = 1)",Fusobacterium nucleatum; 20 μmol/ml,0.9621
same,"biofilm growth, OD at 630 nm (crystal violet) at 48 hrs divided by OD of control (control = 1)",Fusobacterium nucleatum; 25 μmol/ml,0.8549
same,"biofilm growth, OD at 630 nm (crystal violet) at 48 hrs divided by OD of control (control = 1)",Porphyromonas gingivalis; 5 μmol/ml,0.9713
same,"biofilm growth, OD at 630 nm (crystal violet) at 48 hrs divided by OD of control (control = 1)",Porphyromonas gingivalis; 10 μmol/ml,0.9936
same,"biofilm growth, OD at 630 nm (crystal violet) at 48 hrs divided by OD of control (control = 1)",Porphyromonas gingivalis; 20 μmol/ml,1.0779
same,"biofilm growth, OD at 630 nm (crystal violet) at 48 hrs divided by OD of control (control = 1)",Porphyromonas gingivalis; 25 μmol/ml,0.9307
same,"biofilm growth, OD at 630 nm (crystal violet) at 48 hrs divided by OD of control (control = 1)",Prevotella intermedia; 5 μmol/ml,1.4322
same,"biofilm growth, OD at 630 nm (crystal violet) at 48 hrs divided by OD of control (control = 1)",Prevotella intermedia; 10 μmol/ml,1.6018
same,"biofilm growth, OD at 630 nm (crystal violet) at 48 hrs divided by OD of control (control = 1)",Prevotella intermedia; 20 μmol/ml,1.6295
same,"biofilm growth, OD at 630 nm (crystal violet) at 48 hrs divided by OD of control (control = 1)",Prevotella intermedia; 25 μmol/ml,1.5442
same,"biofilm growth, OD at 630 nm (crystal violet) at 48 hrs divided by OD of control (control = 1)",Streptococcus gordonii; 5 μmol/ml,1.3455
same,"biofilm growth, OD at 630 nm (crystal violet) at 48 hrs divided by OD of control (control = 1)",Streptococcus gordonii; 10 μmol/ml,1.6702
same,"biofilm growth, OD at 630 nm (crystal violet) at 48 hrs divided by OD of control (control = 1)",Streptococcus gordonii; 20 μmol/ml,2.1065
same,"biofilm growth, OD at 630 nm (crystal violet) at 48 hrs divided by OD of control (control = 1)",Streptococcus gordonii; 25 μmol/ml,2.2320
same,"biofilm growth, OD at 630 nm (crystal violet) at 48 hrs divided by OD of control (control = 1)",Streptococcus mitis; 5 μmol/ml,1.5188
same,"biofilm growth, OD at 630 nm (crystal violet) at 48 hrs divided by OD of control (control = 1)",Streptococcus mitis; 10 μmol/ml,1.6156
same,"biofilm growth, OD at 630 nm (crystal violet) at 48 hrs divided by OD of control (control = 1)",Streptococcus mitis; 20 μmol/ml,1.5402
same,"biofilm growth, OD at 630 nm (crystal violet) at 48 hrs divided by OD of control (control = 1)",Streptococcus mitis; 25 μmol/ml,1.7351
same,"biofilm growth, OD at 630 nm (crystal violet) at 48 hrs divided by OD of control (control = 1)",Streptococcus mutans; 5 μmol/ml,0.0000
same,"biofilm growth, OD at 630 nm (crystal violet) at 48 hrs divided by OD of control (control = 1)",Streptococcus mutans; 10 μmol/ml,0.0000
same,"biofilm growth, OD at 630 nm (crystal violet) at 48 hrs divided by OD of control (control = 1)",Streptococcus mutans; 20 μmol/ml,0.1923
same,"biofilm growth, OD at 630 nm (crystal violet) at 48 hrs divided by OD of control (control = 1)",Streptococcus mutans; 25 μmol/ml,0.0000
same,"biofilm growth, OD at 630 nm (crystal violet) at 48 hrs divided by OD of control (control = 1)",Streptococcus salivarius; 5 μmol/ml,1.4152
same,"biofilm growth, OD at 630 nm (crystal violet) at 48 hrs divided by OD of control (control = 1)",Streptococcus salivarius; 10 μmol/ml,1.9207
same,"biofilm growth, OD at 630 nm (crystal violet) at 48 hrs divided by OD of control (control = 1)",Streptococcus salivarius; 20 μmol/ml,2.4799
same,"biofilm growth, OD at 630 nm (crystal violet) at 48 hrs divided by OD of control (control = 1)",Streptococcus salivarius; 25 μmol/ml,3.0682
same,"biofilm growth, OD at 630 nm (crystal violet) at 48 hrs divided by OD of control (control = 1)",Streptococcus sanguinis; 5 μmol/ml,1.5035
same,"biofilm growth, OD at 630 nm (crystal violet) at 48 hrs divided by OD of control (control = 1)",Streptococcus sanguinis; 10 μmol/ml,1.7477
same,"biofilm growth, OD at 630 nm (crystal violet) at 48 hrs divided by OD of control (control = 1)",Streptococcus sanguinis; 20 μmol/ml,2.0414
same,"biofilm growth, OD at 630 nm (crystal violet) at 48 hrs divided by OD of control (control = 1)",Streptococcus sanguinis; 25 μmol/ml,2.0560
same,"biofilm growth, OD at 630 nm (crystal violet) at 48 hrs divided by OD of control (control = 1)",Tannerella forsythia; 5 μmol/ml,1.0369
same,"biofilm growth, OD at 630 nm (crystal violet) at 48 hrs divided by OD of control (control = 1)",Tannerella forsythia; 10 μmol/ml,0.9131
same,"biofilm growth, OD at 630 nm (crystal violet) at 48 hrs divided by OD of control (control = 1)",Tannerella forsythia; 20 μmol/ml,1.0055
same,"biofilm growth, OD at 630 nm (crystal violet) at 48 hrs divided by OD of control (control = 1)",Tannerella forsythia; 25 μmol/ml,0.9659
same,"biofilm growth, OD at 630 nm (crystal violet) at 48 hrs divided by OD of control (control = 1)",Veillonella parvula; 5 μmol/ml,1.1641
same,"biofilm growth, OD at 630 nm (crystal violet) at 48 hrs divided by OD of control (control = 1)",Veillonella parvula; 10 μmol/ml,1.2799
same,"biofilm growth, OD at 630 nm (crystal violet) at 48 hrs divided by OD of control (control = 1)",Veillonella parvula; 20 μmol/ml,1.5344
same,"biofilm growth, OD at 630 nm (crystal violet) at 48 hrs divided by OD of control (control = 1)",Veillonella parvula; 25 μmol/ml,1.6960
same,prebiotic effect (metabolic activity),[1],exhibited prebiotic effects
same,"extent of growth, maximal OD630 over 48 hr divided by maximal OD of control (control = 1)",[2]; 5 μmol/ml,0.7612
same,"extent of growth, maximal OD630 over 48 hr divided by maximal OD of control (control = 1)",[2]; 10 μmol/ml,0.7493
same,"extent of growth, maximal OD630 over 48 hr divided by maximal OD of control (control = 1)",[2]; 20 μmol/ml,0.6806
same,"extent of growth, maximal OD630 over 48 hr divided by maximal OD of control (control = 1)",[2]; 25 μmol/ml,0.6885
same,"extent of growth, maximal OD630 over 48 hr divided by maximal OD of control (control = 1)",Streptococcus sobrinus; 5 μmol/ml,0.9714
same,"extent of growth, maximal OD630 over 48 hr divided by maximal OD of control (control = 1)",Streptococcus sobrinus; 10 μmol/ml,0.9741
same,"extent of growth, maximal OD630 over 48 hr divided by maximal OD of control (control = 1)",Streptococcus sobrinus; 20 μmol/ml,0.9458
same,"extent of growth, maximal OD630 over 48 hr divided by maximal OD of control (control = 1)",Streptococcus sobrinus; 25 μmol/ml,0.9644
